Test results reported in patent publication US9505779B2 (EWHA University—Industry Collaboration Foundation, priority 2010, dated 2016).
Entries after “also recorded” stand apart in the source; their conditions may differ.

What was measured:
[1] = test system: human neuroblastoma SH-SY5Y cells; experiment: In vitro neurite outgrowth assay using human neuroblastoma cells; format: cell-based; settings: for neurite processes compared with cells treated with NGF alone (micrographs, FIG. 8) / neurite outgrowth activity: SH-SY5Y; for neurite processes compared with cells treated with NGF alone (micrographs, FIG. 8): NGF plus 1 nM compound, after 96 h of cultivation; for neurite outgrowth activity: NGF
Procedure: The relative nerve regeneration activities of the mutasynthetic analogues, 36-methyl-FK506 and 36-fluoro-FK520, compared with authentic K506 and FK520, were determined using human neuroblastoma cells. […] The cells (n=90) were randomly photographed after 96 hr of cultivation, then the number of cells with outgrowth was counted. The neurite lengths were measured on photographic prints. Duplicate wells were run in all experiments, and the entire experiment was replicated three times. Neurite length estimated from samples treated with NGF alone was used as a control (FIGS. 7 and 8).
(§1) For statistical comparisons of group differences, especially for both the T cell activation and neurite outgrowth assays, quantitative data were analyzed by one-way analysis of variance (ANOVA) followed by Fisher's t-test according to the statistical program SigmaStat® (Jandel Scientific; version 3.1).

[2] = test system: CD3/CD28-stimulated human T lymphocytes; experiment: In vitro T-cell activation assay (interleukin-2 secretion, ELISA); format: cell-based; settings: human T-cells activated with CD3/CD28 antibodies, 0.1 and 1.0 nM compound, 16 to 20 hr; for in vitro immunosuppressive activity (interleukin-2 secreted from activated T-cells) as compared with the control group: control = activated cells without compound
Procedure: After removal of cell debris by routine centrifugation, the supernatant was subjected to ELISA (R&D Systems) to quantify the level of interleukin-2 secreted from activated T-cells. The level of interleukin-2 obtained from T cells activated with CD3/CD28 without further treatment with the above compounds was used as a control (FIG. 7).
as §1

With `CC[C@@H]1/C=C(\C)C[C@H](C)C[C@H](OC)[C@H]2O[C@@](O)(C(=O)C(=O)N3CCCC[C@H]3C(=O)O[C@H](/C(C)=C/[C@@H]3CC[C@@H](O)[C@H](OC)C3)[C@H](C)[C@@H](O)CC1=O)[C@H](C)C[C@@H]2OC` [FK520, ascomycin, reference compound] as the compound, how does the “neurite processes compared with cells treated with NGF alone (micrographs, FIG. 8)” value [1] read?
The value was “exception”.

What does the source list for `C=C(C)C[C@@H]1/C=C(\C)C[C@H](C)C[C@H](OC)[C@H]2O[C@@](O)(C(=O)C(=O)N3CCCC[C@H]3C(=O)O[C@H](/C(C)=C/[C@@H]3CC[C@@H](O)[C@H](OC)C3)[C@H](C)[C@@H](O)CC1=O)[C@H](C)C[C@@H]2OC` [36-methyl-FK506]?
greater effect on neurite outgrowth compared with FK506 ([1]; SH-SY5Y treated with nerve growth factor (10 ng/ml), 1 nM compound, 96 hr): ~20%; neurite processes compared with cells treated with NGF alone (micrographs, FIG. 8) [1]: longer; neurite outgrowth activity ([1]; 1 nM compound): strong neurite outgrowth activity; in vitro immunosuppressive activity (interleukin-2 secretion) against FK506 and FK520 [2]: not improved; in vitro immunosuppressive activity (interleukin-2 secreted from activated T-cells) as compared with the control group [2]: significant immunosuppressive activity; also recorded: have the immunosuppressive activity

How did the “neurite processes compared with cells treated with NGF alone (micrographs, FIG. 8)” value [1] turn out when `C=CC[C@@H]1/C=C(\C)C[C@H](C)C[C@H](OC)[C@H]2O[C@@](O)(C(=O)C(=O)N3CCCC[C@H]3C(=O)O[C@H](/C(C)=C/[C@@H]3CC[C@@H](O)[C@H](OC)C3)[C@H](C)[C@@H](O)CC1=O)[C@H](C)C[C@@H]2OC` [FK506, tacrolimus, reference compound] was run?
Its value is “longer”.

For `CO[C@H]1C[C@@H](C)C/C(C)=C/[C@@H](CCF)C(=O)C[C@H](O)[C@@H](C)[C@@H](/C(C)=C/[C@@H]2CC[C@@H](O)[C@H](OC)C2)OC(=O)[C@@H]2CCCCN2C(=O)C(=O)[C@]2(O)O[C@H]1[C@@H](OC)C[C@H]2C` [36-fluoro-FK520], which “neurite processes compared with cells treated with NGF alone (micrographs, FIG. 8)” value [1] is on record?
Its value is “longer”.

And the neurite outgrowth activity ([1]; 1 nM compound)?
Its neurite outgrowth activity is “strong neurite outgrowth activity”.

And the “in vitro immunosuppressive activity (interleukin-2 secreted from activated T-cells) as compared with the control group” value [2]?
Its value is “have the immunosuppressive activity”.
